These are literature values, as cited in patent US8097457B2, “Liquid crystalline substrates for culturing cells” (Wisconsin Alumni Research Foundation, priority 2005, dated 2012).

The subject of this data set is live cells. To be noted: contacted with live cells for short periods of time.

For `CCCCCc1ccc(-c2ccc(C#N)cc2)cc1` [5CB, 4′-pentyl-4-cyanobiphenyl], the “toxicity to live cells” value was “cause cell death”.
